This note sets out measurements from patent publication US20090298938A1, “USE OF SEMI SYNTHETIC ANALOGUES OF BOSWELLIC ACIDS FOR ANTICANCER ACTIVITY” (COUNCIL OF SCIENTIFIC & INDUSTRIAL RESEARCH, priority 2008, published 2009).

Entries after “also recorded” stand apart in the source; their conditions may differ.

The subject of assay [1] is HL-60 cells. Nature of the assay: Reactive oxygen species (peroxides), DCFH-DA flow cytometry. The assay is classed as cell-based, human. How it is done:
FIG. 4. Boswellic acid analogs produce early generation of reactive oxygen species. In order to determine the intracellular content of intracellular peroxides, HL-60 cells in both treated and untreated control groups of 1×10^6 cells were incubated with […] of DCFH-DA for 30 min prior to termination of a 6 hr treatment with the indicated concentrations of compound designated “c” which is the compound of formula 1, wherein R3=COCH2CH2CH3, […], R4+R5=O. Treatment with the compound designated “c” was associated with an increase in DCFH-DA derived fluorescence. The compound of formula 1 where R3=COCH2CH2CH3, […], R4+R5=O was taken as a prototype to investigate the mechanism of cell death mediated by induction of apoptosis. […] At the highest concentration used the peroxide generation was relatively of low order because of ROS associated cell death. BSO was used as positive control. The endogenous generation of peroxides was measured using a non-fluorescent probe DCFH-DA which upon entering the cell is deesterified to DCFH which is oxidized by the reactive oxygen species to a fluorescent product DCF that remains entrapped within the cells offering analysis by flow cytometery [[…] et al, 2006]. […] Thereafter cells were washed and stained for 1 hr with DCFH-DA and analysed on flow cytometer. […]

Assay [2] has as its system HL-60 cells. Nature of the assay: Reduced glutathione content, fluorimetric. The assay is classed as cell-based, human. The conditions noted are these: HL-60, 6 hr. How it is done: FIG. 7. Modulation of reduced glutathione contents in HL-60 cells by boswellic acid analogs. GSH content was measured in HL-60 cells as described in the Examples section, using treated and untreated groups of about 3×10^6 cells per well and 3 mL of RPMI media. Cells were treated with buthionine sulfoxime (BSO), N-acetyl cysteine (NAC), a compound designated “c” (formula 1 compound wherein R3=COCH2CH2CH3, […] and R4+R5=O), and NAC+the compound “c”. Treatment concentrations were as indicated. […] The depleted GSH stores were restored by an anti-oxidant n-acetyl cysteine. Depletion of GSH content is an important indicator of predisposition conditions leading to cellular injury. Loss of mitochondrial functions as a result of GSH depletion may affect the energy status of the cells and therefore, is critical event in the induction of cell injury. GSH in general offers protection by scavenging reactive oxygen species and electrophiles formed within the cells. The GSH content of cells recovered back to normal or NAC control when cells were treated with sulfhydral groups antioxidant, N-acetyl cysteine (NAC). […] Reduced glutathione content was determined in 3×10^6 HL-60 cells/well/3 mL medium in a 6-well plate after incubation with SS-145 for 6 hr. Cells were washed and the reduced glutathione contents were extracted and determined using a standard fluorimetric method [[…] et al., 1976]. […]

Assay [3] has as its system caspase-3 in Molt-4 cells. Nature of the assay: Caspase-3 activation, colorimetric, Molt-4. The conditions noted are these: 6 hr. The assay is classed as cell-based, human. How it is done: (§1) FIGS. 8A-8B. Caspase activation in HL-60 cells by boswellic acid analogs. FIG. 8A depicts the results of a colorimetric evaluation of caspase-3 activation in HL-60 cells and Molt-4 cells. Cells were treated with a compound designated “c” (formula 1 compound wherein R3=COCH2CH2CH3, […] and R4+R5=O) at concentrations indicated for 6 hours. Caspase-3 inhibitor (DEVD-fmk) was added 30 min prior to the addition of caspase-3 substrate (DEVD-pNA) to the lysate. Data are mean of triplicate determinations with coefficients of variation less than 10%. […] Caspase-9 inhibitor LEHD-CHO was added 30 min prior to the addition of caspase-9 substrate to validate the specificity of caspase-9. Caspase-9 activity was measured fluorometrically. Data are a mean of triplicate determinations with a coefficient of variation of less than 10%. Caspases are important cysteine-proteases that are involved in the cleavage of DNA specifically producing 180 bp DNA fragments. The enzymes act through different signaling pathways. […] Caspase-9 activity was determined fluorometrically and caspase-3 colorimetrically using kits and the instruction provided by the manufacturer (BD pharmingen, USA). Caspase-3 activity was determined in both Molt-4 and HL-60 leukemia cells while caspase-9 was determined in HL-60 cells.

In another assay the test system is caspase-9 in HL-60 cells. The assay is described as follows: Caspase-9 activation, fluorometric, HL-60. The settings on record: HL-60, 50 μM, 6 hours. Format: cell-based, human. Here is the method: as §1
In assay [4] the test system is Ehrlich Ascitic Carcinoma solid tumor. Nature of the assay: Ehrlich ascitic tumor (solid) growth inhibition in mice. The assay is classed as in vivo, Swiss albino mice. The conditions noted are these: 9 days, evaluated day 13. How it is done: FIG. 9. Tumor growth inhibition by boswellic acid analogs. Mice treated intraperitoneally with a compound (designated “c”) of formula 1, wherein R3=COCH2CH2CH3, R1=H, R4+R5=O, have shown 22% tumor growth inhibition at a dose of about 50 mg/kg of body weight, and 41% tumor growth inhibition at a dose of 100 mg/kg of body weight.
Swiss albino mice of 6-8 weeks, weighing 18-23 g of single sex were used. For the initiation of experiment, 1×10^7 cells of EAC (Ehrlich Ascitic Carcinoma) cells were transplanted intramuscularly (i.m.) in 32 mice for the development of solid tumors. The day of tumor transplantation was assigned as day 0. Next day (day-1) animals were randomly selected and divided into four groups having equal number of mice in each group of similar body wt. Groups I and II were treated with compound of formula 1 where R3=COCH2CH2CH3, R1=H, R4+R5=O at the dose of 50 mg/kg b, wt and 100 mg/kg b. wt. intraperitoneally, respectively. Group III received 0.2 ml of 0.85% normal saline and served as normal control while group IV serving as positive control was treated with 5-FU (22 mg/kg b. wt.) intraperitoneally. The total duration of treatment was of 9 days. The evaluation of effect of treatment on tumor was done on 13th day. Ehrlich ascites cells (1×10^7) were injected intramuscularly in the right thigh muscles and on the following day animals started receiving treatment intraperitoneally in 0.5% Tween-20 daily at the indicated doses for 9 days. The growth of tumor and the efficacy of compound of formula 1, where R3=COCH2CH2CH3, R1=H, R4+R5=O in inhibiting tumor growth were evaluated on day 13 in terms of the weight of the tumor in treated and control groups count. The determination of solid tumor growth inhibition against EAT was calculated as percent tumor growth regression according to the following: […]

Take `CCCC(=O)OC1CCC2(C)C(CCC3(C)C2C(=O)C=C2C4C(C)C(C)CCC4(C)CCC23C)C1(C)C(=O)O` (stereo not shown) [R3=COCH2CH2CH3, R1=H, R4+R5=O]: the “peroxide positive cell population” value in the assay on HL-60 cells [1] (HL-60, 50 μg/ml, 6 hr) is 79%. In addition, the “ROS / peroxide generation (concentration dependence)” value in the assay on HL-60 cells [1] (HL-60, 6 hr, DCFH-DA) is “concentration related increase in ROS generation; also recorded: dose dependent increase”. The “reduced glutathione (GSH) content” value in the assay with HL-60 cells [2] was “strongly depleted GSH content”. Besides, the caspase-3 activation result in assay [3] is listed as “about 50%”. Moreover, the caspase-9 activity stimulation in the assay with caspase-9 in HL-60 cells was 4-5 fold. Further, the values for the tumor growth inhibition in assay [4] (50 mg/kg intraperitoneally) and in assay [4] (100 mg/kg intraperitoneally) were 22% and 41%, respectively.
